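Assay format: 96-well plates, 48-hour exposure. TGI: total growth inhibition.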
What was measured:
Assay in all cases: NCI anticancer screen, dose series, 48 h
SNB-19 CNS = tested on: SNB-19 CNS
RPMI-8226 leukemia = tested on: RPMI-8226 leukemia
U251 CNS = tested on: U251 CNS
PC-3 prostate = tested on: PC-3 prostate
SK-MEL-28 melanoma = tested on: SK-MEL-28 melanoma
UACC-257 melanoma = tested on: UACC-257 melanoma
A549 NSCLC = tested on: A549 NSCLC
SNB-75 CNS = tested on: SNB-75 CNS
UO-31 renal = tested on: UO-31 renal
MDA-MB-231 breast = tested on: MDA-MB-231 breast

Row | Compound | TGI (SNB-19 CNS) | TGI (RPMI-8226 leukemia) | TGI (U251 CNS) | TGI (PC-3 prostate) | TGI (SK-MEL-28 melanoma) | TGI (UACC-257 melanoma) | TGI (A549 NSCLC) | TGI (SNB-75 CNS) | TGI (UO-31 renal) | TGI (MDA-MB-231 breast)
1 | COc1ccc(NC(=S)c2ccc([N+](=O)[O-])o2)cc1 | 11.7 µM | 4.72 µM | 2.55 µM | 2.97 µM | 12.5 µM | 7.2 µM | 11.1 µM | 14.9 µM | 5.09 µM | 6.35 µM
2 | CC(C)C(=O)Cc1ccc2ccccc2n1 | > 100 µM | 19.9 µM | > 100 µM | > 100 µM | > 100 µM | > 100 µM | > 100 µM | > 100 µM | > 100 µM | > 100 µM
3 | CS(=O)(=O)CCC1CCC(=O)O1 (stereo not given) | > 100 µM | > 100 µM | > 100 µM | > 100 µM | > 100 µM | > 100 µM | > 100 µM | > 100 µM | > 100 µM | > 100 µM
4 | N/C(=N\N=C\c1nc2ccccc2o1)c1cnccn1 | > 100 µM | > 100 µM | > 100 µM | > 100 µM | > 100 µM | > 100 µM | > 100 µM | 42.8 µM | > 100 µM | > 100 µM
5 | COC(=O)[C@@H]1Cc2ccc(OC)c(c2)OCCC(=O)N1 | > 100 µM | > 100 µM | > 100 µM | > 100 µM | > 100 µM | > 100 µM | > 100 µM | > 100 µM | > 100 µM | > 100 µM
6 | Cc1nc2ccccc2n1Cc1nnc(-c2ccccc2)o1 | > 100 µM | > 100 µM | > 100 µM | > 100 µM | > 100 µM | > 100 µM | > 100 µM | > 100 µM | > 100 µM | > 100 µM
7 | COC(=O)/C=C1\C(CO[Si](C)(C)C(C)(C)C)OC(n2ccc(=O)[nH]c2=O)C1O (stereo not given) | > 100 µM | 29.4 µM | > 87.3 µM | > 27.9 µM | 21.4 µM | > 40.4 µM | 82.9 µM | > 100 µM | 29.6 µM | > 100 µM
8 | CCOC(=O)c1cn(-c2ccc([N+](=O)[O-])cc2)c(=S)n2c1nc1ccccc12 | > 100 µM | > 100 µM | > 100 µM | > 100 µM | > 100 µM | > 100 µM | > 100 µM | > 100 µM | 4.64 µM | > 100 µM
9 | C=CCN(c1cc(O)c2c(c(C)cn2S(=O)(=O)c2ccccc2)c1[N+](=O)[O-])S(C)(=O)=O | > 100 µM | > 100 µM | > 100 µM | > 100 µM | > 100 µM | > 100 µM | > 100 µM | > 100 µM | > 100 µM | > 100 µM
10 | CC(C)=CCC[C@@H](C)C1=C(N)C(O)=C(C)C(=O)C1=O | > 75 µM | > 75 µM | > 75 µM | > 75 µM | > 75 µM | > 75 µM | > 75 µM | > 75 µM | > 75 µM | > 75 µM
11 | O=c1c2sc3ccccc3sc=2c(=O)c2c(Cl)c(Cl)c(Cl)c(Cl)c12 | > 100 µM | > 100 µM | > 100 µM | > 100 µM | > 100 µM | > 100 µM | > 100 µM | > 100 µM | > 100 µM | > 100 µM
12 | Cc1cn([C@H]2C[C@@H](N3C(=O)c4ccccc4C3=O)[C@@H](CO[Si](C)(C)C(C)(C)C)O2)c(=O)[nH]c1=O | > 100 µM | > 100 µM | > 100 µM | > 100 µM | > 100 µM | > 100 µM | > 100 µM | 60.8 µM | > 100 µM | > 100 µM
13 | CCOc1ccc(NC(=O)C(=O)C(/C(=N/N)C(=O)OC)c2nc3ccc([N+](=O)[O-])cc3[nH]c2=O)cc1 (stereo not given) | > 100 µM | > 100 µM | > 100 µM | > 100 µM | > 100 µM | > 100 µM | > 100 µM | > 100 µM | > 100 µM | > 100 µM
14 | Fc1ccc2c(c1)SC1=Nc3sc4cc(F)ccc4[n+]3CN12 | 38.4 µM | 8.45 µM | 46.3 µM | > 100 µM | > 100 µM | 92.1 µM | 58.3 µM | 36.8 µM | 74.3 µM | 44.3 µM
15 | CCc1nc(N)nc(N)c1-c1ccc(N2CCOCC2)c(N=[N+]=[N-])c1 | > 78.4 µM | > 100 µM | > 100 µM | > 100 µM | > 100 µM | > 100 µM | > 100 µM | > 100 µM | > 100 µM | > 100 µM
16 | C[C@H]1CCC/C=C/[C@@H]2C[C@H](OC(=O)CN(C)C)C[C@H]2[C@H](O)/C=C/C(=O)O1 | > 100 µM | > 26.6 µM | > 100 µM | 8.74 µM | > 30.9 µM | 27.8 µM | > 100 µM | 99.7 µM | 1.48 µM | 0.0327 µM
17 | CCCCCC(=O)OC[n+]1cccc(-c2c(COC(=O)NC(C)C)c(COC(=O)NC(C)C)c3n2CCC3)c1 | > 100 µM | > 100 µM | > 100 µM | > 100 µM | > 100 µM | > 100 µM | > 100 µM | > 100 µM | > 100 µM | > 100 µM

Row | Compound | TGI (SNB-19 CNS) | TGI (RPMI-8226 leukemia) | TGI (U251 CNS) | TGI (PC-3 prostate) | TGI (SK-MEL-28 melanoma) | TGI (UACC-257 melanoma) | TGI (A549 NSCLC) | TGI (SNB-75 CNS) | TGI (UO-31 renal) | TGI (MDA-MB-231 breast)
18 | O=C1C(Cl)=CC2(C=C1Cl)CCN=c1c(O)c3c(c(O)c12)=NC=N3 | > 100 µM | 80.9 µM | 71.9 µM | > 100 µM | > 100 µM | 52.4 µM | > 100 µM | > 100 µM | > 100 µM | > 100 µM
19 | Cc1ccc2c(=O)cc(-c3cc(C)sc3C)[nH]c2n1 | > 100 µM | > 20.5 µM | > 100 µM | > 30.2 µM | > 100 µM | > 100 µM | > 39.3 µM | > 29.9 µM | > 100 µM | 65.8 µM
20 | CCOC(=O)c1c(C)n(-c2ccc(C)cc2)c(=O)c2ccccc2c(=O)c2c(=O)ccc(=O)c1=2 | 51.7 µM | 24.9 µM | 44.9 µM | 56.6 µM | 27.1 µM | 51.2 µM | 58.1 µM | 81.7 µM | > 100 µM | > 100 µM
21 | COc1cc2c(cc1OCCCOc1cc3c(cc1OC)C(=O)N1CCC[C@H]1C(=O)N3)N=C[C@@H]1CCCN1C2=O | > 100 µM | 21.2 µM | 38.8 µM | 57 µM | 46.8 µM | 50 µM | 57.4 µM | 36 µM | 40.5 µM | 44 µM
22 | c1ccc(C(NC2=NCCO2)C2CC2)cc1 (stereo not given) | > 100 µM | > 100 µM | > 100 µM | > 100 µM | > 100 µM | > 100 µM | > 100 µM | > 100 µM | > 100 µM | > 100 µM
23 | Cc1ccc2c(c1C)CC1(Cc3ccc(C)c(C)c3C1=O)C2=O (stereo not given) | > 100 µM | > 100 µM | > 100 µM | > 100 µM | > 100 µM | > 100 µM | > 100 µM | > 100 µM | > 100 µM | > 100 µM
24 | O=C(/C=C/c1ccccc1)CCN1CCCCC1 | > 100 µM | 66.1 µM | 65.6 µM | > 100 µM | 58.5 µM | > 100 µM | > 100 µM | > 100 µM | > 100 µM | 63.9 µM
25 | NC(CCC(=O)O)C(=O)NC(Cc1ccc(N(CCCl)CCCl)cc1)C(=O)O (stereo not given) | > 100 µM | > 100 µM | > 100 µM | > 100 µM | > 100 µM | > 100 µM | > 100 µM | > 100 µM | > 100 µM | > 100 µM
26 | S=c1[nH]nc(Cn2c3ccc(Br)cc3c3nc4ccccc4nc32)o1 | > 100 µM | 6.82 µM | > 92.4 µM | > 93.2 µM | > 79.2 µM | > 100 µM | 59.3 µM | > 100 µM | 40.8 µM | > 100 µM
27 | NC(Cc1cc(I)c(Oc2ccc(O)c(I)c2)c(I)c1)C(=O)O (stereo not given) | > 100 µM | 84 µM | > 100 µM | > 100 µM | > 100 µM | > 100 µM | > 100 µM | > 100 µM | > 100 µM | > 100 µM
28 | CCN(C(=O)N[C@@H](CC(C)C)C(=O)NCC(=O)OC)c1ccccc1 | > 100 µM | > 100 µM | > 100 µM | > 100 µM | > 100 µM | 61.9 µM | > 100 µM | > 100 µM | > 100 µM | > 100 µM
29 | O=C(Nc1ccc(Cl)cc1Cl)C1C(=O)OC2(CCCCC2)OC1=O | > 100 µM | 35.7 µM | 54.1 µM | 17.4 µM | 23.5 µM | 30.1 µM | 28.8 µM | 29.2 µM | 15.1 µM | 33 µM
30 | Clc1ccc(C(OCn2ccnc2)c2nc3ccccc3[nH]2)c(Cl)c1 (stereo not given) | > 100 µM | 92.4 µM | > 100 µM | > 100 µM | > 100 µM | > 100 µM | > 100 µM | > 100 µM | 92.1 µM | > 100 µM
31 | CN(/N=C/c1ccccn1)C1=NCCN1 | > 100 µM | > 100 µM | > 100 µM | > 100 µM | > 100 µM | > 100 µM | > 100 µM | > 100 µM | > 100 µM | > 100 µM
32 | CCOC(=O)c1nc2ccc(C(F)(F)F)cc2nc1Oc1ccc(OC)cc1 | > 100 µM | > 100 µM | > 100 µM | > 100 µM | > 100 µM | > 100 µM | > 100 µM | > 100 µM | > 100 µM | > 100 µM
33 | CC[C@@H]1CC[C@@H]2[C@H](CC[C@]3(C)[C@@H](O[N+](=O)[O-])CC[C@@H]23)[C@H]1C(C)=O | > 100 µM | 49.9 µM | > 100 µM | 74.9 µM | > 100 µM | 55 µM | > 100 µM | > 100 µM | > 100 µM | 75.1 µM
34 | COc1cc(CCN)c(OC)c(OC)c1 | > 100 µM | > 100 µM | > 100 µM | > 100 µM | > 100 µM | > 100 µM | > 100 µM | > 100 µM | > 100 µM | > 100 µM

— PubChem BioAssay (NCI)
